From patent US20140255517A1, “MANAGING POST-TRAUMATIC STRESS DISORDER” (EMORY UNIVERSITY, priority 2013, published 2014)
“Also recorded” adds a separate entry of the source.

Columns and labels:
Assay type in all cases: in vivo, mice
[1] = test system: corticosterone; experiment: Plasma corticosterone after 30 minutes of restraint stress; conditions: losartan for 2 weeks vs vehicle; 30 minutes restraint stress
Procedure: (§1) The hypothalamic pituitary axis (HPA) stress axis could influence the level of learned fear. In order to examine the chronic effects of losartan on the HPA, stress response was examined as well as plasma renin, a measure of endogenous angiotensin II activity. Animals were exposed to 30 minutes of restraint stress and plasma levels of corticosterone and renin measured.

[2] = test system: AT1R mRNA; experiment: Amygdala AT1R mRNA expression after extinction training (RT-qPCR); conditions: chronic losartan vs vehicle, following extinction training; t(11)=2.8, P<0.05
[3] = Anxiety-like behavior in elevated plus maze and open field tests
Procedure: Distance traveled during open-field testing (B) and percent time in open arms of elevated plus maze test of vehicle (C) (n=6-8/group). To determine whether losartan affects baseline levels of generalized anxiety, animals were tested in the elevated plus and open field mazes.

[4] = test system: animal model of PTSD-like symptoms; experiment: Cued Pavlovian fear conditioning and extinction after chronic losartan infusion by osmotic mini-pump
Procedure: Extinction training/fear expression was tested and total average freezing within the session (B) and represented in blocks of 5 CS tones (C) 24 hr following fear acquisition.
The chronic effects of AT1 R antagonism on the extinction of fear to were examined. Two-week osmotic mini-pumps were implanted and losartan (10 mg/kg/day) was subcutaneously infused. […] On day 10, animals underwent Pavlovian fear conditioning as described above.

[5] = test system: plasma renin; experiment: Plasma renin activity after 30 minutes of restraint stress; conditions: losartan for 2 weeks vs vehicle; 30 minutes restraint stress
Procedure: as §1
(§2) As an index of central HPA neuronal activation, c-Fos activation was then examined in the paraventricular nucleus (PVN).

[6] = test system: c-Fos; experiment: c-Fos activation in the paraventricular nucleus after restraint stress; conditions: chronic losartan vs vehicle, t(10)=2.3, P<0.05
Text: as §2

[7] = test system: animal model of PTSD-like symptoms; experiment: Cued Pavlovian fear conditioning, extinction training and extinction retention after acute losartan
Procedure: 24 hr following fear acquisition, losartan (1 mg/kg or 10 mg/kg i.p) was given prior to extinction training (B, E; n=20-25/group). 24 hr following extinction training, and in the absence of drug, mice were tested for extinction retention of learned fear, expressed as total average freezing and in blocks of 5 CS tones (C,D,F,G). To further understand the mechanism by which angiotensin II blockers reduce PTSD symptoms, the effects of the selective AT1R antagonist losartan were examined in an animal model of PTSD-like symptoms. Animals were cue-fear trained using Pavlovian fear conditioning consisting of five pairings of a conditioned stimulus (CS) tone (12 kHz) co-terminating with a shock or unconditioned stimulus (US). […] Twenty-four hours later, the effects of losartan were examined on fear expression (also considered the extinction training session) to the presentation of 15 trials of CS cues in a different context. Groups were given either losartan (1 mg/kg or 10 mg/kg i.p.) or saline 40 minutes prior to fear expression/extinction training. […] Therefore in a separate group of animals, a higher dose of losartan (10 mg/kg i.p.) was examined. […] Twenty-four hours later in the absence of drug, long-term fear memory was assessed (extinction retention).

[8] = Baseline blood pressure measured by radiotelemetry
Procedure: Distance traveled during open-field testing (B) and percent time in open arms of elevated plus maze test of vehicle (C) (n=6-8/group).
In order to determine whether inhibition of the renin-angiotensin system is involved in modulating fear directly or indirectly, both acute and chronic inhibition of the angiotensin type 1 receptor (AT1R) were examined using the AT1R antagonist losartan (1 mg/kg and 10 mg/kg). […] A dose of 10 mg/kg is commonly used in rodents, however the effects on baseline blood pressure are mixed. When given acutely or chronically, some studies show reductions in baseline blood pressure while others show no effect.

[9] = chronic losartan 10 mg/kg/day vs vehicle

## CCCCc1nc(Cl)c(CO)n1Cc1ccc(-c2ccccc2-c2nn[nH]n2)cc1 [losartan]
[1]
  plasma corticosterone levels following restraint stress: unaltered by losartan
[2]
  amygdala AT1R mRNA expression: significantly reduced amygdala AT1R mRNA expression; also recorded: decreased amygdala AT1 receptor mRNA expression
[3]; acute losartan 10 mg/kg i.p. 40 minutes prior to test, vs saline
  anxiety-like behavior (distance traveled, time spent in open arms): No differences in anxiety-like behavior
[3]; [9]
  generalized anxiety (percent time in center and distance traveled, open field test): no differences between groups
[4]; losartan 10 mg/kg/day subcutaneous infusion, conditioning on day 10, vs vehicle
  acquisition of fear (percent freezing): no difference in the acquisition of fear; also recorded: acquired fear similarly to control groups
[4]; losartan 10 mg/kg/day subcutaneous infusion, 24 hrs after fear acquisition
  fear expression: total average freezing or blocks of 5 CS trials: no significant difference in total average freezing
[4]; losartan 10 mg/kg/day subcutaneous infusion, t(35)=2.4, P<0.05
  extinction retention of fear memory over the total average freezing period: enhanced extinction retention of fear memory
[4]; losartan 10 mg/kg/day, F1,108=8.8, P<0.005
  freezing to CS presentation during extinction retention testing (repeated-measures ANOVA, main effect of treatment): significantly less freezing to CS presentation
[4]; losartan 10 mg/kg/day, P<0.05
  freezing in blocks of five CS tone presentations during extinction retention (Bonferroni post hoc): significant reductions in freezing during the second block
[5]
  plasma renin activity following restraint stress: unchanged by losartan
[6]
  c-Fos activation in the paraventricular nucleus (PVN): reduced c-Fos activation in the PVN; also recorded: less c-Fos activation in the paraventricular nucleus
[7]; losartan 1 mg/kg i.p. 40 minutes prior to extinction training, vs saline
  total average freezing during extinction training/fear expression: no difference in total average freezing
[7]; losartan 1 mg/kg i.p., tested 24 hours after extinction training in the absence of drug, vs saline
  freezing during extinction retention testing: no freezing differences between groups
[7]; losartan 10 mg/kg i.p. 40 minutes prior to extinction training, vs saline
  total average freezing during extinction training/fear expression: no differences between groups in total average freezing
[7]; losartan 10 mg/kg i.p., 24 hours later in the absence of drug, t(48)=2.9, P<0.01
  total overall freezing during extinction retention: total overall freezing was significantly reduced
[7]; losartan 10 mg/kg i.p., F1,144=14.6, P<0.001
  freezing to CS presentation during extinction retention testing (repeated-measures 2 way ANOVA, main effect of treatment): significantly less freezing to CS presentation
[7]; losartan 10 mg/kg i.p., P<0.05
  freezing in blocks of five CS tone presentations during extinction retention (Bonferroni post hoc): significant reductions in freezing during the first and third blocks
[8]; acute losartan 10 mg/kg i.p. vs saline
  baseline blood pressure: no effect on baseline blood pressure
[8]; [9]
  baseline blood pressure: no differences between groups
